# Laboratory results reported in the PolyMetriX glass transition set.
# ± gives the standard deviation of the reports.
row,Structure (SMILES),glass transition temperature [°C]
1,*Nc1cnc(*)s1 (repeat unit),139.00
2,*CCCCCCOc1ccc(/C=C2\CCC/C(=C\c3ccc(O*)c(OC)c3)C2=O)cc1OC (repeat unit),80.00
3,*CCOCCOC(=O)C(CCCCCCC)C(=O)O* (repeat unit),-58.00
4,*C(=O)Nc1ccc(Oc2ccc(C3(c4ccc(Oc5ccc(NC(=O)c6ccc7c(c6)C(=O)N(c6cccc(N8C(=O)c9ccc(*)cc9C8=O)c6)C7=O)cc5)cc4)NC(=O)c4ccccc43)cc2)cc1 (repeat unit),320.00
5,*CC(*)OC(=O)c1ccc(OC(C)=O)cc1 (repeat unit),76.00
6,*CC(*)(C)C(=O)OCC1COC(c2ccccc2)O1 (repeat unit),130.00
7,*Oc1ccc(-c2ccc(OC(=O)c3ccc(-c4ccc(C(*)=O)cc4)cc3-c3ccccc3)cc2)cc1 (repeat unit),168.00
8,*c1cccc(-c2nc3cc4nc(-c5ccccc5)c(*)nc4cc3nc2-c2ccccc2)c1 (repeat unit),365.00
9,*CCN(CCOC(=O)CCCCC(=O)O*)c1ccc(/C=N/N(c2ccccc2)c2ccccc2)cc1 (repeat unit),54.00
10,*Oc1c(Br)cc(C2(c3cc(Br)c(OC(*)=O)c(Br)c3)CC3CCC2C3)cc1Br (repeat unit),283.00
11,*CC(*)(C)C (repeat unit) [Poly(isobutene)],-74 ± 3.6
12,*Oc1c(-c2ccccc2)cc(*)cc1-c1cccc(-c2ccccc2)c1-c1ccccc1 (repeat unit),212.00
13,*/C(=C(/*)c1ccc([Si](C)(C)C)cc1)c1ccccc1 (repeat unit),200.00
14,*C(=O)Oc1c(C)cc(C(c2cc(C)c(OC(=O)c3ccc4c(c3)C(=O)N(c3c(C)cc(-c5cc(C)c(N6C(=O)c7ccc(*)cc7C6=O)c(C)c5)cc3C)C4=O)c(C)c2)(C(F)(F)F)C(F)(F)F)cc1C (repeat unit),327.00
15,*c1ccc(C(=O)c2ccc(-n3nc(-c4ccc(Oc5ccc(-c6nn(*)c(=O)c7ccccc67)cc5)cc4)c4ccccc4c3=O)cc2)cc1 (repeat unit),301.00
16,*c1cc(C(=O)NCCCCCC)cc(N2C(=O)c3ccc(-c4ccc5c(c4)C(=O)N(*)C5=O)cc3C2=O)c1 (repeat unit),256.90
17,*CC(*)(C)C(=O)OCCCCCCC(F)(F)C(F)(F)C(F)(F)C(F)(F)F (repeat unit),23.00
18,*CCCCCCNC(=O)Cc1ccc(CC(=O)N*)cc1 (repeat unit),95.00
19,*c1ccc(-c2ccc(-c3ccc([Si](*)(C)C)s3)s2)s1 (repeat unit),45.00
20,*c1ccc(Oc2ccc(N3C(=O)c4ccc(Oc5ccc(Oc6ccc(Oc7ccc8c(c7)C(=O)N(*)C8=O)cc6)cc5)cc4C3=O)cc2)cc1 (repeat unit),215.00
21,*ON(C(F)(F)F)C(F)(F)C(*)(F)F (repeat unit),-46.00
22,*CCC(C)CCC(=O)S* (repeat unit),-50.00
23,*Oc1cccc(Oc2ccc(C(=O)O)c(C(=O)Nc3ccc(Oc4ccc(-c5ccc(Oc6ccc(NC(=O)c7cc(*)ccc7C(=O)O)cc6)cc5)cc4)cc3)c2)c1 (repeat unit),100.00

row,Structure (SMILES),glass transition temperature [°C]
1,*c1ccc2c(c1)C(=O)N(c1ccc(OCCOc3ccc(N4C(=O)c5ccc(C(*)(C(F)(F)F)C(F)(F)F)cc5C4=O)cc3)cc1)C2=O (repeat unit),254.00
2,*C/C=C/N(/C=C/CC1CC(=O)N(c2ccc(Cc3ccc(N4C(=O)CC(*)C4=O)cc3)cc2)C1=O)c1ccc(/N=N/c2ccc([N+](=O)[O-])cc2)cc1 (repeat unit),277.00
3,*Oc1ccc(NC(=O)c2cc(C(=O)Nc3ccc(Oc4ccc(C(c5ccc(*)cc5)(C(F)(F)F)C(F)(F)F)cc4)cc3)cc([N+](=O)[O-])c2)cc1 (repeat unit),232.00
4,*Oc1ccc(C2(c3ccc(OC(*)=O)cc3)CC3CCC2C3)cc1 (repeat unit),235.00
5,*CC(O)COc1c(C)cc(C(C)(C)c2cc(C)c(OCC(O)COc3c(C)cc(S(=O)(=O)c4cc(C)c(O*)c(C)c4)cc3C)c(C)c2)cc1C (repeat unit),145.00
6,*Oc1ccc(C2(c3ccc(OC(=O)c4cccc(C(*)=O)c4)cc3)CCC3CCCCC3C2)cc1 (repeat unit),248.00
7,*N=P(*)(CCC)CCC (repeat unit),10.00
8,*c1ccc(N2C(=O)c3ccc(Oc4ccc(Sc5ccc(Oc6ccc7c(c6)C(=O)N(*)C7=O)cc5)cc4)cc3C2=O)cc1 (repeat unit),238.00
9,*CCCCCNc1nc(NCCCCCc2nc3cc(-c4ccc5[nH]c(*)nc5c4)ccc3[nH]2)nc(N(CC)CC)n1 (repeat unit),190.00
10,*c1ccc(C(c2ccc(-c3nc4ccc(-c5ccc6nc(*)oc6c5)cc4o3)cc2)(C(F)(F)F)C(F)(F)F)cc1 (repeat unit),345.00
11,*c1ccc2c(c1)C(CCCCCC)(CCCCCC)c1cc(-c3cc(CCCCCC)c(*)cc3CCCCCC)ccc1-2 (repeat unit),78.80
12,*CCCCCCCCc1nc2ccc(-c3ccc4nc(*)oc4c3)cc2o1 (repeat unit),223.50
13,*Oc1ccc(Oc2ccc(S(=O)(=O)c3ccc(Oc4ccc(C(=O)c5ccc(*)cc5)cc4)cc3)cc2)cc1 (repeat unit),186.00
14,*CCCCOC(=O)CCC(=O)O* (repeat unit),-32.00
15,*Nc1cc([N+](=O)[O-])c(NC(=O)CCCCCCCCCCC(*)=O)cc1/C=C/c1ccc(N(C)C)cc1 (repeat unit),144.00
16,*CC(=O)Nc1ccc(NC(=O)c2ccc3c(c2)C(=O)N(*)C3=O)cc1 (repeat unit),292.00
17,*CC(*)C(=O)OC(F)(C(F)(F)F)C(F)(F)F (repeat unit),10.00
18,*c1ccc(-c2ccc(N3C(=O)c4ccc(-c5ccc6c(c5)C(=O)N(*)C6=O)cc4C3=O)c(C)c2)cc1C (repeat unit),302.00
19,*CC(c1ccccc1)C1C(=O)N(c2ccc(NC(=O)OCC3CCCN3c3ccc([N+](=O)[O-])cc3)cc2)C(=O)C1* (repeat unit),208.00
20,*Oc1cccc2ccc(Oc3ccc(NC(=O)c4ccc(Oc5cccc(Oc6ccc(C(=O)Nc7ccc(*)cc7)cc6)c5)cc4)cc3)cc12 (repeat unit),196.00
21,*C(=O)c1ccc2c(c1)C(=O)N(c1cccc(C(=O)c3ccc(C(=O)c4cccc(N5C(=O)c6ccc(*)cc6C5=O)c4)cc3)c1)C2=O (repeat unit),240.00
22,*C(=O)OCCCCCOC(=O)c1ccc(N2C(=O)c3ccc(*)cc3C2=O)cc1 (repeat unit),90.00
23,*c1ccc(Oc2ccc(C(c3ccc(Oc4ccc(-c5nc(*)nc(-c6ccccc6)n5)cc4)cc3)(C(F)(F)F)C(F)(F)F)cc2)cc1 (repeat unit),241.00
